Assay [1] has as its target Receptor tyrosine-protein kinase erbB-4 (Homo sapiens) (UniProt Q15303). Description: Inhibition of human ERBB4 at 1.82 nM by HotSpot assay relative to control.
Assay [2] concerns the target T1, Serine/threonine-protein kinase BRSK1 (Homo sapiens) (UniProt Q8TDC3).
T1 sequence (whole entry): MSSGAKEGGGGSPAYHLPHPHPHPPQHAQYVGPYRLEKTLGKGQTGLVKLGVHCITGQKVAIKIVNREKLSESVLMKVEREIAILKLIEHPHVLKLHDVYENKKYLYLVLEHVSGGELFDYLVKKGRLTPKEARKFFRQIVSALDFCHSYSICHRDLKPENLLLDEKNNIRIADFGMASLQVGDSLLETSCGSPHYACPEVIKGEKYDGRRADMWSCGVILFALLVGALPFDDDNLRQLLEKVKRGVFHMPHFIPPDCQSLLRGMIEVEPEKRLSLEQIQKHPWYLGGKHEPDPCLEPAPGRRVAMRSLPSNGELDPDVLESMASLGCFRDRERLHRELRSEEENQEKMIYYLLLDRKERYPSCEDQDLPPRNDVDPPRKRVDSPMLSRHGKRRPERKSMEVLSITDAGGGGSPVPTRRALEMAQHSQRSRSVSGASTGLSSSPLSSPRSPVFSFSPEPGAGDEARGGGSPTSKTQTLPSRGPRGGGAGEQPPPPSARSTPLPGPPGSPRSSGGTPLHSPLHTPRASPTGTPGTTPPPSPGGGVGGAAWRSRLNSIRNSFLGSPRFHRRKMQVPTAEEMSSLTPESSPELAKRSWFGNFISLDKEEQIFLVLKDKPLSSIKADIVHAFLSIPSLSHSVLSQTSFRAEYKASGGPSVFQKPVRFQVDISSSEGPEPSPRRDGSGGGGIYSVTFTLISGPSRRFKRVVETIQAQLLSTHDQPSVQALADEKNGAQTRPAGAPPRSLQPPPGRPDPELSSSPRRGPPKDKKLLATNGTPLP
The experiment in a line: Inhibition of human BRSK1 at 1.82 nM by HotSpot assay relative to control.

In assay [3] the target is T2, NUAK family SNF1-like kinase 1 (Homo sapiens) (UniProt O60285).
T2 sequence (whole entry): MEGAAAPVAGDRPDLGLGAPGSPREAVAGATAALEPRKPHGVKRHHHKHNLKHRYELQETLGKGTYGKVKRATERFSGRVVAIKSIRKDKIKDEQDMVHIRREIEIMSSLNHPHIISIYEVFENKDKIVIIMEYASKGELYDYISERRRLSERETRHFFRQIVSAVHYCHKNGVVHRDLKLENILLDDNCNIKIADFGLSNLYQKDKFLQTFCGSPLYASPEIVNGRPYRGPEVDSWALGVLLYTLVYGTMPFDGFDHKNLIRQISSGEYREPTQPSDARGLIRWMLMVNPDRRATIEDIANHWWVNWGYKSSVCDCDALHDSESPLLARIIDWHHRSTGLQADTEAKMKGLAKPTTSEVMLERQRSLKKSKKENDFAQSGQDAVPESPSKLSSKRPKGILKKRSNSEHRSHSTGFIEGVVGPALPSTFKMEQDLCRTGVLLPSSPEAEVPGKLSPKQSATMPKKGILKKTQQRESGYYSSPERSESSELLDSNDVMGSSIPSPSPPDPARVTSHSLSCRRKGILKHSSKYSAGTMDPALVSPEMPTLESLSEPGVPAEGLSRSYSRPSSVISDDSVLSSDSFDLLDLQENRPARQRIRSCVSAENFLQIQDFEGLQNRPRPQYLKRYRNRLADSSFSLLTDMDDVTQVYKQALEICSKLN
The experiment in a line: Inhibition of human ARK5 at 18.6 nM by HotSpot assay relative to control.

Assay [4] addresses T3, Lymphokine-activated killer T-cell-originated protein kinase (Homo sapiens) (UniProt Q96KB5).
T3 sequence (whole entry): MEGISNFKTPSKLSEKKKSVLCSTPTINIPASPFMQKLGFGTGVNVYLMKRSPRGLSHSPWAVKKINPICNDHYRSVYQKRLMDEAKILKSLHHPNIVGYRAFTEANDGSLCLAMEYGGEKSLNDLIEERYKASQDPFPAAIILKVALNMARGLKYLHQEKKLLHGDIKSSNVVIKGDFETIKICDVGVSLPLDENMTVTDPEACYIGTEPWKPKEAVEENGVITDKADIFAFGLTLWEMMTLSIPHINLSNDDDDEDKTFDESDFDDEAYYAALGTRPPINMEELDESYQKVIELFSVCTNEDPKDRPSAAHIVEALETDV
Description: Inhibition of human TOPK at 18.6 nM by HotSpot assay relative to control.

Assay [5] addresses T4, Serine/threonine-protein kinase 17A (Homo sapiens) (UniProt Q9UEE5).
T4 sequence (whole entry): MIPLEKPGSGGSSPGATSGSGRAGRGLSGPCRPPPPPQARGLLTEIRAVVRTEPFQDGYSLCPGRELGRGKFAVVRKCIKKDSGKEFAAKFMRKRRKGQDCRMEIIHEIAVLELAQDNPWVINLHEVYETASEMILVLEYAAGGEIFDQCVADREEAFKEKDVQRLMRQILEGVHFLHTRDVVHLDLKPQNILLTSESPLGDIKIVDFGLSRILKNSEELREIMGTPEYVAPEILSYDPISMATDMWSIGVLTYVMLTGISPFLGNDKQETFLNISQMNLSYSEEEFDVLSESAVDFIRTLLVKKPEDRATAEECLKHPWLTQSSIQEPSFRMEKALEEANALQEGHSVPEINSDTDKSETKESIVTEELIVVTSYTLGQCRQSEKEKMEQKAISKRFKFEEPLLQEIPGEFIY
Description: Inhibition of human DRAK1 at 18.6 nM by HotSpot assay relative to control.

Chain of Receptor tyrosine-protein kinase erbB-4 (Homo sapiens) (Q15303 whole entry): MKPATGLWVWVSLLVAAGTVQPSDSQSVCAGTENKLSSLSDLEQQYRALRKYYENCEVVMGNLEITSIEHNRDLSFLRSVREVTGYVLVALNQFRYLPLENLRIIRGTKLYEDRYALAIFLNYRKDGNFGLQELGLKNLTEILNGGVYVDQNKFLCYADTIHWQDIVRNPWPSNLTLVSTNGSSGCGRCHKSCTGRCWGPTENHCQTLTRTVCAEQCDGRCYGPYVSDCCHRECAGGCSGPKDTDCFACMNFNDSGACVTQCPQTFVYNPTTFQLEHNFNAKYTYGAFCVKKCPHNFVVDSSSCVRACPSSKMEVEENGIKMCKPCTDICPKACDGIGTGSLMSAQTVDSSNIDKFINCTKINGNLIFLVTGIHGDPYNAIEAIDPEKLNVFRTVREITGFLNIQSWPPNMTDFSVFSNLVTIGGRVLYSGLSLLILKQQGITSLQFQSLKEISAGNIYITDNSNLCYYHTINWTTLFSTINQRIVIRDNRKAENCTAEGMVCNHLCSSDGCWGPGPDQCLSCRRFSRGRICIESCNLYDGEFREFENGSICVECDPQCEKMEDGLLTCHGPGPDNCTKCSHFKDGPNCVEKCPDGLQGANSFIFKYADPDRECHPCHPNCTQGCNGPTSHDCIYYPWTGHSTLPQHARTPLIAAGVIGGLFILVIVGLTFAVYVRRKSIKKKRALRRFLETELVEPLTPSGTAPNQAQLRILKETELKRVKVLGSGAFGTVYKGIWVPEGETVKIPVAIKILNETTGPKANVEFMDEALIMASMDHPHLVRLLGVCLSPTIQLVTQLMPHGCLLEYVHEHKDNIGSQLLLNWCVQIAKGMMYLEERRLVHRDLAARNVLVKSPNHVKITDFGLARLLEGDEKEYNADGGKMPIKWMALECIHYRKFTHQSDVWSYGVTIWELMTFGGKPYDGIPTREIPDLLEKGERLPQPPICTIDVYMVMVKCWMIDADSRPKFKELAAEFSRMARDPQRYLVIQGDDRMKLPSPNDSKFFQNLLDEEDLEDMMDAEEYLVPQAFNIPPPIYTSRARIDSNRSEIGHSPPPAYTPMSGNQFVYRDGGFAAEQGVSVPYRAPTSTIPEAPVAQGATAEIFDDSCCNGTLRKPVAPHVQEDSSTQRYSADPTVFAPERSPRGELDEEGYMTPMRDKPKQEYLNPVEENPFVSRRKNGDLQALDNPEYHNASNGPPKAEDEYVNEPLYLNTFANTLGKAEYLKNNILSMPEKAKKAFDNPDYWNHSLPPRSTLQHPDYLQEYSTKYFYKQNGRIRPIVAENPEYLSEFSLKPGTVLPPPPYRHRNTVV

As to `C[C@@]1(C(=O)Nc2ccc(F)nc2)CCCN1c1nc(Nc2cc(C3CC3)n[nH]2)c2cccn2n1`, the figures for the inhibition in assay [1] and in assay [2] were 3.49% and -0.42%, respectively.

On to `C[C@]1(O)C[C@@H](c2nc(-c3ccc4ccc(-c5ccccc5)nc4c3)c3c(N)nccn32)C1`, for which the inhibition in assay [3] is -1.57%; in assay [4], 1.57%; in assay [5] it was 0.05%.

The term inhibition denotes the relative decrease from the control value, in per cent.

Source of the values: ChEMBL document CHEMBL5653615 (J Biol Chem, 2013).
